Laboratory results from ChEMBL document CHEMBL4033647, “Novel coumarin- and quinolinone-based polycycles as cell division cycle 25-A and -C phosphatases inhibitors induce proliferation arrest and apoptosis in cancer cells” (Eur J Med Chem, 2017).
pIC50: −log10 of the molar value. Active and inactive are the calls of the source. The rule behind the calls is not given here.

Key:
[1] = test system: Hs 683; assay: Cytotoxicity against human Hs683 cells assessed as reduction in cell viability after 72 hrs by MTT assay; assay type: functional, cell-based; conditions: Hs 683, 72 h
[2] = Cytotoxicity against human U373n cells assessed as reduction in cell viability after 72 hrs by MTT assay; assay type: functional, cell-based
[3] = test system: MCF7; assay: Cytotoxicity against human MCF7 cells assessed as reduction in cell viability after 72 hrs by MTT assay; assay type: functional, cell-based; conditions: MCF7, 72 h
[4] = molecular target: T1, M-phase inducer phosphatase 1 (Homo sapiens, UniProt P30304); assay: Inhibition of recombinant human full length GST-tagged CDC25A expressed in Escherichia coli BL21-DE3 pLysS using 3-O-methylfluorescein phosphate as substrate after 2 hrs by fluorimetric analysis
T1 sequence (P30304 whole entry): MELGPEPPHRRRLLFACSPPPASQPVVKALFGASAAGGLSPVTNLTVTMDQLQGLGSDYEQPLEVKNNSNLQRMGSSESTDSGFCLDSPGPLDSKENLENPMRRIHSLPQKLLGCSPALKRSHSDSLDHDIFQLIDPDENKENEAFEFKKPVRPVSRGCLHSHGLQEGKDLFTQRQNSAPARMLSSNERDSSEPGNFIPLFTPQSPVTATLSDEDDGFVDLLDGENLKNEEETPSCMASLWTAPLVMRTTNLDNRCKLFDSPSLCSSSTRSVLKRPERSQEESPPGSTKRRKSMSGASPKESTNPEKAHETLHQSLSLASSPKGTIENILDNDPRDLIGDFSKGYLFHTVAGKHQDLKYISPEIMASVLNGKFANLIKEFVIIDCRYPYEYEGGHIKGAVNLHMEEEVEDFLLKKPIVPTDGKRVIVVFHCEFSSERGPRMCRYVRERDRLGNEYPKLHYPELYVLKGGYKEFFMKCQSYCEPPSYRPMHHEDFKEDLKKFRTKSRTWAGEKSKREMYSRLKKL

[5] = test system: PC-3; assay: Cytotoxicity against human PC3 cells assessed as reduction in cell viability after 72 hrs by MTT assay; assay type: functional, cell-based; conditions: PC-3, 72 h
[6] = test system: A549; assay: Cytotoxicity against human A549 cells assessed as reduction in cell viability after 72 hrs by MTT assay; assay type: functional, cell-based; conditions: A549, 72 h
[7] = test system: SK-MEL-28; assay: Cytotoxicity against human SK-MEL-28 cells assessed as reduction in cell viability after 72 hrs by MTT assay; assay type: functional, cell-based; conditions: SK-MEL-28, 72 h
[8] = molecular target: T2, M-phase inducer phosphatase 3 (Homo sapiens, UniProt P30307); assay: Inhibition of recombinant human full length GST-tagged CDC25C expressed in Escherichia coli BL21-DE3 pLysS using 3-O-methylfluorescein phosphate as substrate after 2 hrs by fluorimetric analysis
T2 sequence (P30307 whole entry): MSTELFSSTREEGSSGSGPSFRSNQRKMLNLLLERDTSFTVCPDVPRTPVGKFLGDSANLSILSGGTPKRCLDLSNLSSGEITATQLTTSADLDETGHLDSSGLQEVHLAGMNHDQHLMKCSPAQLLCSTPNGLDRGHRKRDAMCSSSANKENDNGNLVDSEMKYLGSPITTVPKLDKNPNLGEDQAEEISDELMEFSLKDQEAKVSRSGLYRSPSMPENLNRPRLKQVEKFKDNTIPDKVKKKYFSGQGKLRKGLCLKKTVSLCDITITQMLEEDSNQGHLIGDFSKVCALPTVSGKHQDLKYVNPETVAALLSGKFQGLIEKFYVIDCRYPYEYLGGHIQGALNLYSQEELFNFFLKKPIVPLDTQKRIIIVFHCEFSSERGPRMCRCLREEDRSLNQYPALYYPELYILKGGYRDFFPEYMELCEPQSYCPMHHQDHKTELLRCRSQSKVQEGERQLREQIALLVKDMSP

[9] = organism: Homo sapiens; assay: Selectivity ratio of IC50 for recombinant human full length GST-tagged CDC25A expressed in Escherichia coli BL21-DE3 pLysS to IC50 for recombinant human full length GST-tagged CDC25C expressed in Escherichia coli BL21-DE3 pLysS
[10] = test system: A-431; assay: Cell cycle arrest in human A431 cells assessed as accumulation at G1 phase at 10 uM after 24 hrs by propidium iodide staining based flow cytometric analysis (reference value: 53.04%); assay type: functional
[11] = test system: A-431; assay: Cell cycle arrest in human A431 cells assessed as accumulation at subG1 phase at 50 uM after 24 hrs by propidium iodide staining based flow cytometric analysis (reference value: 3.40%); assay type: functional
[12] = test system: A-431; assay: Effect on CDC25C splice variant protein expression in human A431 cell extract at 50 uM after 24 hrs by Western blot analysis; assay type: functional, cell-based
[13] = test system: A-431; assay: Cell cycle arrest in human A431 cells assessed as accumulation at S phase at 50 uM after 24 hrs by propidium iodide staining based flow cytometric analysis (reference value: 17.33%); assay type: functional
[14] = test system: A-431; assay: Cell cycle arrest in human A431 cells assessed as accumulation at G2/M phase at 50 uM after 24 hrs by propidium iodide staining based flow cytometric analysis (reference value: 26.23%); assay type: functional
[15] = test system: A-431; assay: Decrease in CDC25C protein expression level in human A431 cell extract at 50 uM after 24 hrs by Western blot analysis; assay type: functional, cell-based
[16] = test system: A-431; assay: Cell cycle arrest in human A431 cells assessed as accumulation at S phase at 10 uM after 24 hrs by propidium iodide staining based flow cytometric analysis (reference value: 17.33%); assay type: functional
[17] = molecular target: T3, M-phase inducer phosphatase 3 (Homo sapiens) (UniProt P30307); conditions: 10 to 50 uM
T3 sequence (whole entry): T2 sequence (P30307 whole entry)
Description: Inhibition of CDC25C in human A431 cells assessed as increase in CDK-mediated phosphorylation of histone H3 at Ser10 residues at 10 to 50 uM after 24 hrs by Western blot analysis

[18] = test system: A-431; assay: Induction of apoptosis in human A431 cells assessed as caspase-3 cleavage at 10 to 50 uM after 24 hrs by Western blot analysis; assay type: functional, cell-based
[19] = test system: A-431; assay: Cell cycle arrest in human A431 cells assessed as accumulation at subG1 phase at 10 uM after 24 hrs by propidium iodide staining based flow cytometric analysis (reference value: 3.40%); assay type: functional
[20] = test system: A-431; assay: Cell cycle arrest in human A431 cells assessed as accumulation at G1 phase at 50 uM after 24 hrs by propidium iodide staining based flow cytometric analysis (reference value: 53.04%); assay type: functional
[21] = test system: A-431; assay: Cell cycle arrest in human A431 cells assessed as accumulation at G2/M phase at 10 uM after 24 hrs by propidium iodide staining based flow cytometric analysis (reference value: 26.23%); assay type: functional
[22] = test system: A-431; assay: Cytotoxicity against human A431 cells assessed as reduction in cell viability after 24 hrs by MTT assay; assay type: functional, cell-based; conditions: A-431, 24 h

Compound | pIC50 [1] | pIC50 [2] | pIC50 [3] | pIC50 [4] | pIC50 [5] | pIC50 [6] | pIC50 [7] | pIC50 [8] | further results
O=C1C=CC(=O)c2c1ccc1c2c(=O)oc2cc(O)ccc21 | 4.96 | 5.05 | 5.05 | 5.18 | 4.57 | 4.72 | 4.54 | 6.10 | –
O=C1C=CC(=O)c2c1ccc1c2c(=O)oc2ccc(Cl)cc21 | 5.22 | 4.92 | 4.89 | 5.59 | 4.72 | 4.60 | 4.48 | 5.84 | –
O=C1C=CC(=O)c2c1ccc1c2c(=O)[nH]c2ccc(F)cc21 | 5.52 | 5.70 | 5.40 | 5.47 | 5.52 | 5.40 | 5.52 | 5.33 | –
Cn1c(=O)c2c3c(ccc2c2ccccc21)C(=O)C=CC3=O | 4.17 | 4.39 | 4.47 | 4.89 | 4.49 | 4.17 | 4.17 | 4.83 | –
Cc1ccc2c(c1)oc(=O)c1c3c(ccc12)C(=O)C=CC3=O | < 4.00 | 4.01 | 4.09 | 5.54 | < 4.00 | < 4.00 | < 4.00 | 6.00 | –
COc1ccc2c(c1)oc(=O)c1c3c(ccc12)C(=O)C=CC3=O | 4.62 | 4.80 | 5.05 | 5.54 | 4.51 | 4.52 | 4.51 | 6.01 | –
O=C1C=CC(=O)c2c1ccc1c2c(=O)oc2cc(OCc3ccccc3)ccc21 | < 4.00 | < 4.00 | < 4.00 | 5.51 | < 4.00 | < 4.00 | < 4.00 | 5.15 | –
O=C1C(SCCO)=C(SCCO)C(=O)c2ccccc21 | 5.55 | 5.73 | 6.02 | – | 5.47 | 5.84 | 5.64 | – | –
O=C1C=CC(=O)c2c1ccc1c2c(=O)oc2cc(F)ccc21 | 5.40 | 5.15 | 4.96 | 5.66 | 4.44 | 6.00 | 4.74 | 6.16 | –
O=C1C=CC(=O)c2c1ccc1c2c(=O)[nH]c2c3ccccc3ccc12 | 4.52 | 4.38 | 4.52 | 5.49 | 4.38 | 4.35 | 4.14 | 5.36 | –
O=C1C=CC(=O)c2c1ccc1c2c(=O)oc2ccc(F)cc21 | 4.72 | 4.44 | 5.52 | 5.46 | 4.37 | 4.77 | 4.40 | 6.40 | Ratio IC50 [9]: 8.75
O=C1C=CC(=O)c2c1ccc1c2c(=O)[nH]c2ccccc21 | 5.55 | 5.57 | 6.05 | 5.11 | 6.05 | 5.74 | 5.82 | 5.44 | Activity [10]: 57.01%; Activity [11]: 12.81%; Activity [12]: Active; Activity [13]: 6.98%; Ratio IC50 [9]: 2; Activity [14]: 26.28%; Activity [15]: Active; Activity [16]: 11.9%; inhibition [17]: Active; Activity [18]: inactive; Activity [19]: 6.26%; Activity [20]: 53.93%; Activity [21]: 24.83%; pIC50 [22]: 5.09
O=C1C=CC(=O)c2c1ccc1c2c(=O)[nH]c2cc(Cl)ccc21 | 6.00 | 6.00 | 5.70 | 5.39 | 5.40 | 6.89 | 5.30 | 5.26 | –
O=C1C=CC(=O)c2c1ccc1c2c(=O)[nH]c2cc(F)ccc21 | 5.05 | 5.52 | 4.57 | 5.55 | 5.40 | 4.74 | 5.10 | 5.35 | –
CCN(CC)c1ccc2c(c1)oc(=O)c1c3c(ccc12)C(=O)C=CC3=O | 4.01 | 4.23 | 4.24 | 5.92 | 4.35 | 4.01 | 4.14 | 6.52 | –
O=C1C=CC(=O)c2c1ccc1c2c(=O)oc2c3ccccc3ccc12 | 5.40 | 4.26 | 5.15 | 5.82 | 4.12 | 4.15 | < 4.00 | 7.00 | Ratio IC50 [9]: 15
